These results are taken from patent US4005194A, “Treatment of prostatic hyperplasia” (Abbott Laboratories, priority 1975, dated 1977).

Data set [1] deals with Sprague Dawley male rat. Particulars: in vivo. The procedure: Ten Sprague Dawley male rat 22 days of age and weighing 45-50 grams, were randomly divided into two groups. One group received the treatment described below. After 57 days of treatment, the animals from the non-treatment control group and those from the treatment group were sacrificed. The various organs were removed, trimmed of excess tissue and weighed. Body weights were taken weekly. Group I received no treatment; Group II received 10 μg of Compound N twice each day. The results are shown in Table I with each entry showing the mean value of the respective group.

Data set [2] relates to Male rats. The note with it: rat, in vivo. As to the method:
In an experiment similar to that of Example 5 with Groups I and III being treated as shown, but Group II being treated like Group III except with only 1 μg of Compound N, the test was continued for 51 days, starting with 22-day old male rats, 5 animals per group. The animals were sacrificed on day 52. […] Another three groups of 5 male rats were treated in the identical fashion, but the treatment was extended from the age of 22 days to day 138 (116 days).

For data set [3], the system named is Male rats. The note with it: rat, in vivo. The source holds these as a separate data set.
Experimental: Male rats, 22 days of age, were divided into 3 groups of five animals each. The 3 groups were treated exactly as described in Example 3, but the experiment was continued for 153 days. After 115 days, these animals were bred to untreated, cycling females (each male was caged with 2 cycling females in pro-estrus for 3 consecutive days, on 3-5 separate occasions).

Turning to `CCNC(=O)[C@@H]1CCCN1C(=O)[C@H](CCCNC(=N)N)NC(=O)[C@H](CC(C)C)NC(=O)[C@@H](CC(C)C)NC(=O)[C@H](Cc1ccc(O)cc1)NC(=O)[C@H](CO)NC(=O)[C@H](Cc1c[nH]c2ccccc12)NC(=O)[C@H](Cc1c[nH]cn1)NC(=O)[C@@H]1CCC(=O)N1` [Compound N], in data set [1], the “Effect on normal weight gain and growth” value is “essentially no effect”. Further, the “Outward signs or organic changes over the control group” value in data set [2] was “None of the treated animals in this experiment showed any outward signs or organic changes”. Also, in data set [3], the “Breeding index (percentage of successful impregnations vs. opportunities to breed)” value is 23%, the “Course of resulting pregnancies” value is on record as “progressed normal”, the Number of pups was found to be 10.4 and the “Weight of pups on day 1” value was 6.9 g. In data set [3], the “Weight of pups on day 4” value worked out at 11.7 g, the “Weight of pups on day 11” value was 23.5 g and the “Weight of pups on day 21” value turned out to be 44.3 g.
